Source: the supplement of paper PMC9663587

Tests used:
[1] = compound: CCc1cnn2c(NCc3ccc[n+]([O-])c3)cc(N3CCCC[C@H]3CCO)nc12; experiment: increase in dead-cell fraction, 72 h; higher = more death;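 further: breast cancer cell lines in 384-well plates, stained with Hoechst plus LIVE/DEAD far red dye and imaged, cells above an LDR intensity threshold counted dead, Hoechst-negative corpses included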
[2] = compound: T1, CCOc1cc2ncc(C#N)c(Nc3ccc(OCc4ccccn4)c(Cl)c3)c2cc1NC(=O)/C=C/CN(C)C [Neratinib/HKI272]; experiment: as above
[3] = compound: T2, CN(C)C/C=C/C(=O)Nc1ccc(C(=O)N2CCC[C@@H](Nc3ncc(Cl)c(-c4c[nH]c5ccccc45)n3)C2)cc1 [THZ531]; experiment: as above
[4] = compound: T3, CC(=O)c1c(C)c2cnc(Nc3ccc(N4CCN(CCOCCOCCOCCNC(=O)COc5cccc6c5C(=O)N(C5CCC(=O)NC5=O)C6=O)CC4)cn3)nc2n(C2CCCC2)c1=O [BSJ-03-123]; experiment: as above
[5] = compound: CN(C)C/C=C/C(=O)Nc1ccc(C(=O)Nc2cccc(Nc3ncc(Cl)c(-c4c[nH]c5ccccc45)n3)c2)cc1 [THZ1]; experiment: as above
[6] = compound: C=CC(=O)Nc1ccc(C(=O)Nc2[nH]nc3c2CN(C(=O)N[C@H](CN(C)C)c2ccccc2)C3(C)C)cc1 [YKL-5-124]; experiment: as above
[7] = compound: CN(C)C/C=C/C(=O)Nc1ccc(O[C@@H]2CCC[C@@H](Nc3ncc(Cl)c(-c4c[nH]c5ccccc45)n3)C2)cc1 [BSJ-01-175]
[8] = compound: Cc1nc(Nc2ncc(C(=O)Nc3c(C)cccc3Cl)s2)cc(N2CCN(CCO)CC2)n1 [Dasatinib]
[9] = compound: COc1cccc2c1C(=O)c1c(O)c3c(c(O)c1C2=O)C[C@@](O)(C(=O)CO)C[C@@H]3O[C@H]1C[C@H](N)[C@H](O)[C@H](C)O1 [Doxorubicin]
[10] = compound: CNC(=O)c1cccc(-c2ccc3c(N4CCOC[C@@H]4C)nc(N4CCOC[C@@H]4C)nc3n2)c1 [AZD2014]
[11] = compound: CC(=O)c1c(C)c2cnc(Nc3ccc(N4CCNCC4)cn3)nc2n(C2CCCC2)c1=O
[12] = compound: T1, Neratinib/HKI272
[13] = compound: CC[C@@H]1C(=O)N(C)c2cnc(Nc3ccc(C(=O)N[C@H]4CC[C@H](N5CCN(CC6CC6)CC5)CC4)cc3OC)nc2N1C(C)C [Volasertib/BI6727]
[14] = compound: Cc1nc(-c2cn3c(n2)-c2ccc(-c4cnn(C(C)(C)C(N)=O)c4)cc2OCC3)n(C(C)C)n1 [Taselisib/GDC0032]
[15] = compound: CO[C@@H](C)Cn1c(=O)n(C)c2cnc3ccc(-c4cncc(C(C)(C)O)c4)cc3c21
[16] = compound: CNCc1ccc(-c2[nH]c3cc(F)cc4c3c2CCNC4=O)cc1 [Rucaparib]
[17] = compound: T2, THZ531
[18] = compound: T3, BSJ-03-123
[19] = compound: CC(=O)Nc1cccc(-n2c(=O)n(C3CC3)c(=O)c3c(Nc4ccc(I)cc4F)n(C)c(=O)c(C)c32)c1
[20] = compound: Cc1cc(Nc2ncc(Cl)c(Nc3ccccc3S(=O)(=O)C(C)C)n2)c(OC(C)C)cc1C1CCNCC1 [Ceritinib/LDK378]
[21] = compound: O=C(CCCCCCC(=O)Nc1ccccc1)NO [Vorinostat]
[22] = compound: CC(C)n1nc(-c2ccc3oc(N)nc3c2)c2c(N)ncnc21 [INK128/MLN0128]
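Wherever GR50, 72 h is given: breast cancer and non-malignant breast epithelial cell lines, Deep Dye Drop or Dye Drop imaging, nine half-log doses, GR normalized to time-zero plates and DMSO-only controls.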

Cell Line: MDAMB453
- increase in dead-cell fraction ([1]; 0.0001 µM): 0.0187
- increase in dead-cell fraction ([1]; 0.0003162 µM): -0.0038
- increase in dead-cell fraction ([1]; 0.001 µM): -0.0082
- increase in dead-cell fraction ([1]; 0.003162 µM): -0.004
- increase in dead-cell fraction ([1]; 0.01 µM): 0.0474
- increase in dead-cell fraction ([1]; 0.03162 µM): 0.251
- increase in dead-cell fraction ([1]; 0.1 µM): 0.309
- increase in dead-cell fraction ([1]; 0.3162 µM): 0.286
- increase in dead-cell fraction ([1]; 1 µM): 0.318
- increase in dead-cell fraction ([2]; 0.0003162 µM): 0.0316
- increase in dead-cell fraction ([2]; 0.001 µM): 0.0419
- increase in dead-cell fraction ([2]; 0.003162 µM): 0.0613
- increase in dead-cell fraction ([2]; 0.01 µM): 0.0661
- increase in dead-cell fraction ([2]; 0.03162 µM): 0.119
- increase in dead-cell fraction ([2]; 0.1 µM): 0.106
- increase in dead-cell fraction ([2]; 0.3162 µM): 0.177
- increase in dead-cell fraction ([2]; 1 µM): 0.212
- increase in dead-cell fraction ([2]; 3.162 µM): 0.348
- increase in dead-cell fraction ([3]; 0.0001 µM): 0.0012
- increase in dead-cell fraction ([3]; 0.0003162 µM): 0.0037
- increase in dead-cell fraction ([3]; 0.001 µM): 0.0069
- increase in dead-cell fraction ([3]; 0.003162 µM): 0.0027
- increase in dead-cell fraction ([3]; 0.01 µM): 0.0057
- increase in dead-cell fraction ([3]; 0.03162 µM): 0.0394
- increase in dead-cell fraction ([3]; 0.1 µM): 0.16
- increase in dead-cell fraction ([3]; 0.3162 µM): 0.187
- increase in dead-cell fraction ([3]; 1 µM): 0.157
- increase in dead-cell fraction ([4]; 0.001 µM): -0.0008
- increase in dead-cell fraction ([4]; 0.003162 µM): -0.0002
- increase in dead-cell fraction ([4]; 0.01 µM): -0.0018
- increase in dead-cell fraction ([4]; 0.03162 µM): 0.0081
- increase in dead-cell fraction ([4]; 0.1 µM): 0.0016
- increase in dead-cell fraction ([4]; 0.3162 µM): 0.0031
- increase in dead-cell fraction ([4]; 1 µM): 0.0138
- increase in dead-cell fraction ([4]; 3.162 µM): 0.007
- increase in dead-cell fraction ([4]; 10 µM): 0.0618
- increase in dead-cell fraction ([5]; 0.0001 µM): 0.0006
- increase in dead-cell fraction ([5]; 0.0003162 µM): -0.0024
- increase in dead-cell fraction ([5]; 0.001 µM): -0.0042
- increase in dead-cell fraction ([5]; 0.003162 µM): 0.0021
- increase in dead-cell fraction ([5]; 0.01 µM): 0.0161
- increase in dead-cell fraction ([5]; 0.03162 µM): 0.0525
- increase in dead-cell fraction ([5]; 0.1 µM): 0.133
- increase in dead-cell fraction ([5]; 0.3162 µM): 0.101
- increase in dead-cell fraction ([5]; 1 µM): 0.122
- increase in dead-cell fraction ([6]; 0.001 µM): 0.007
- increase in dead-cell fraction ([6]; 0.003162 µM): 0.013
- increase in dead-cell fraction ([6]; 0.01 µM): 0.0243
- increase in dead-cell fraction ([6]; 0.03162 µM): 0.0344
- increase in dead-cell fraction ([6]; 0.1 µM): 0.0489
- increase in dead-cell fraction ([6]; 0.3162 µM): 0.033
- increase in dead-cell fraction ([6]; 1 µM): 0.0346
- increase in dead-cell fraction ([6]; 3.162 µM): 0.0296
- increase in dead-cell fraction ([6]; 10 µM): 0.275
- GR50, 72 h [7]: 0.00336 µM
- GR50, 72 h [8]: > 10 µM
- GR50, 72 h [9]: 0.00587 µM
- GR50, 72 h [10]: 0.00364 µM
- GR50, 72 h [11]: 0.0428 µM
- GR50, 72 h [12]: 0.0361 µM
- GR50, 72 h [13]: 0.00726 µM
- GR50, 72 h [14]: 0.00346 µM
- GR50, 72 h [15]: < 0.001 µM
- GR50, 72 h [16]: 6.58 µM
- GR50, 72 h [17]: 0.0236 µM
- GR50, 72 h [18]: 1.8 µM
- GR50, 72 h [19]: 0.0339 µM
- GR50, 72 h [20]: 0.37 µM
- GR50, 72 h [21]: 0.944 µM
- GR50, 72 h [22]: 0.00996 µM
